Laboratory results taken from patent US20230096750A1, “Cyanine dyes and their usage for in vivo staining of microorganisms and other living cells” (Philipps-Universität Marburg, priority 2021, published 2023).
Like-named read-outs stand apart in the source and are kept apart here.

What was measured:
[1] = Molar extinction coefficients; format: physicochemical
dsDNA [2] = test: Fluorescence titrations (affinity towards dsDNA); format: binding; settings: for Kd: affinity towards dsDNA; for RFU + DNA: with DNA; for RFU − DNA: without DNA; for RFU for slits 5/5: value given in Slits column for slits 5/5 nm instead of 10/10
Experimental: The affinity of the TramTO derivatives towards dsDNA is usually higher than the affinity of the derivatives without the modified side chain according to this invention. […] KD values are determined as is well known to any person being of ordinary skill in the art.

[3] = system: live and dead bacteria (E. Coli); test: Flow cytometry of live versus dead cells labelled with 6-TramTO-1; format: cell-based; settings: 5 μM dye for 5 min
Experimental: The flow cytometric measurements are performed by use of the LSR Fortessa cell analyser (BD Biosciences, USA) or other commercially available apparatuses (e.g. FACSAria III (BD Biosciences, USA) and Guava easyCyte (Merck Millipore, USA)). […] A minimum of 10000 events per sample is analysed. The measurements are each performed in at least two independent experiments. Bacteria are labelled for 15 min with 5 μM of the corresponding dyes. […] For 6-TramTO-1 (1) one can see clear labelling when 5 μM of the dye are added for only 5 min before the measurements, dead cells (treated with 70% isopropanol for 1 h, then washed with saline 3×) being labelled about 10× stronger: MFI 135 vs 1337. FIGS. 5A-5C show additional data. […] FIG. 5B: The graphs of FIG. 5B show flow cytometric data of mixtures of dead and live E. Coli treated with left graph: PI (20 μM) and right graph: 6-TramTO-1 (1, 5 μM) for 5 min showing that the TramTO and PI give the same results. • The parameter settings regarding excitation/emission (as far as they are applied) are equivalent to those described within the legend of FIG. 5A.

[4] = solvent DMSO; cited from earlier work
dsDNA [5] = settings: affinity towards dsDNA; read-out: KD (literature value); cited from earlier work
HeLa cells = test: Viability of HeLa cells, resazurin fluorescence-based cell viability assay; settings: dye concentration of 10 μM

Row | Kd (dsDNA [2]) | Molar extinction coefficient ([1]; solvent H2O) | Structure (SMILES) | RFU + DNA (dsDNA [2]; slits 5/5 nm) | RFU − DNA (dsDNA [2]; slits 5/5 nm) | RFU for slits 5/5 (dsDNA [2]) | RFU + DNA (dsDNA [2]; slits 10/10 nm) | RFU − DNA (dsDNA [2]; slits 10/10 nm) | further results
1 | 45 ± 1.05 µM | – | CC[n+]1ccc(/C=C2\Sc3ccccc3N2C)c2ccccc21 [CH3TO-3 (6), (Z)-1-ethyl-4-((3-methylbenzo[d]thiazol-2(3H)-ylidene)methyl)quinolin-1-ium, reference compound] | 210 RFU | 6.8 RFU | – | – | – | Molar extinction coefficient ([1]; solvent DMSO): 37153 M⁻¹ cm⁻¹
2 | 8.63 ± 4.34 µM | 61813 M⁻¹ cm⁻¹ | CC[n+]1ccc(/C=C2\Sc3ccccc3N2CCCCCCn2cc(CN)nn2)c2ccccc21 [6-TramTO-1 (1), (Z)-4-((3-(6-(4-(ammoniomethyl)-1H-1,2,3-triazol-1-yl)hexyl)benzo[d]thiazol-2(3H)-ylidene)methyl)-1-ethylquinolin-1-ium] | 460 RFU | 1.2 RFU | – | – | – | labelling of dead cells stronger than live cells [3]: about 10 ×; MFI ([3]; dead cells (70% isopropanol for 1 h)): 1337; MFI ([3]; live cells): 135; affinity towards dsDNA, superior to 6-TramTAS (dsDNA [2]; ratio versus 6-TramTAS): ~3 ×; affinity towards dsDNA, superior to 6-TramTO-3 (dsDNA [2]; ratio versus 6-TramTO-3): ~2 ×
3 | – | – | CN(C)c1ccc(/C=C/c2sc3ccccc3[n+]2CCCCCCn2cc(CN)nn2)cc1 [6-TramTAS (2), (E)-3-(6-(4-(aminomethyl)-1H-1,2,3-triazol-1-yl)hexyl)-2-(4-(dimethylamino)styryl)benzo[d]thiazol-3-ium] | – | – | ~8 RFU) | 90 RFU | 2.9 RFU | Molar extinction coefficient ([1]; solvent MeCN): 70463 M⁻¹ cm⁻¹
4 | 20.6 ± 6.67 µM | – | CC[n+]1ccc(/C=C2\Sc3ccccc3N2C)c2ccccc21 [CH3TO-1 (4), (Z)-1-ethyl-4-((3-methylbenzo[d]thiazol-2(3H)-ylidene)methyl)quinolin-1-ium, reference compound] | – | – | ~10 RFU) | 125 RFU | 0.2 RFU | Molar extinction coefficient (lit.) [4]: lit. 63000 M^−1cm^−1
5 | 23 ± 1.81 µM | 59403 M⁻¹ cm⁻¹ | CC[n+]1ccc(/C=C/C=C2\Sc3ccccc3N2CCCCCCn2cc(CN)nn2)c2ccccc21.[I-] [6-TramTO-3 (3)] | 280 RFU | 11.8 RFU | – | – | – | Kd (dsDNA [5]): 19.5 ± 2.6 µM; viability of HeLa cells compared to reference (HeLa cells): about 97%
